Tests used:
[1] = Summary of the strongest expressions over the administration routes; conditions: strongest level of the three administrations
Text: (§1) Finally, the expression levels of lipid nanoparticles with a plurality of tertiary amine groups from the embodiments of the present disclosure after intramuscular injection, white adipocyte administration, and intraperitoneal injection are summarized, and compared with lipid nanoparticles prepared from commercially available cationic lipids MC3 and SM102. […] However, the expression rates of the phosphatidylamine lipids with a plurality of tertiary amine groups from embodiments of the present disclosure are higher than that of SM102.

[2] = tested on: Fluc-mRNA (luciferase expression); assay: In vivo transfection efficiency of Fluc-mRNA lipid nanoparticles after intramuscular injection; parameters: species or system mice; conditions: for Intramuscular injection (PL/MC3) expression strength level: ratio of expression PL/MC3; for in vivo transfection (expression, FIG. 5): weight ratio lipid nanoparticle/RNA 10:1, DOPE or DSPC group; for in vivo transfection (expression, FIG. 5) / expression in vivo compared with control MC3: 3 μg Fluc-mRNA/mouse; for expression in vivo compared with control MC3: DOPE group, weight ratio 10:1
Experimental: 6 h after intramuscular injection of mRNA LNPs, mice were injected intraperitoneally with 0.2 mL […] (20 mg/mL PBS solution). After 10 min, mice were anesthetized with isoflurane in oxygen in a ventilated anesthesia room and imaged with an imaging system (IVIS, PerkinElmer), and luminescence was quantified using Living Image software (PerkinElmer).

white adipocyte = assay: White adipocyte administration, expression relative to SM102; assay type: cell-based; conditions: for White adipocyte administration (PL/SM102) expression strength level: ratio of expression PL/SM102; for expression compared with control SM102: white adipocyte administration
Text: as §1

adipose tissue = assay: Intraperitoneal injection of Fluc-mRNA LNPs, expression and distribution; assay type: in vivo, mice; conditions: for Intraperitoneal injection (PL/SM102) expression strength level: ratio of expression PL/SM102; for expression compared with control SM102: intraperitoneal injection
Experimental: FIG. 10 illustrates the effect of Fluc-mRNA LNPs composed of different structural cationic lipids on the mRNA delivery efficiency after intraperitoneal administration according to some embodiments of the present disclosure. Targeting and expression of PL lipids on adipose tissue after intraperitoneal administration is also evaluated. […] That is to say, the PL lipid structure with the plurality of tertiary amino group structures may enhance the selective targeting of visceral adipocytes. […]
as §1

CCCCCCCC/C=C\CCOC(=O)CCCOP(=O)(NCCN(CCCCCCCCCCCC)CCCN(C)C)OCCCC(=O)OCC/C=C\CCCCCCCC [PL13]
Summary of the strongest expressions [1]: A (A: ≥2) | Intramuscular injection (PL/MC3) expression strength level [2]: A (A: ≥2) | in vivo transfection (expression, FIG. 5) [2]: expressed | White adipocyte administration (PL/SM102) expression strength level (white adipocyte): D (D: <0.1)

CCCCC/C=C\C/C=C\CCCCCCCCOP(=O)(NCCCN(CC(O)CCCCCCCCCC)CC(O)CN(CC(O)CCCCCCCCCC)CC(O)CCCCCCCCCC)OCCCCCCCC/C=C\C/C=C\CCCCC (stereo not drawn) [PL19]
Summary of the strongest expressions [1]: C (C: ≥0.1 and <1) | Intraperitoneal injection (PL/SM102) expression strength level (adipose tissue): D (D: <0.1) | White adipocyte administration (PL/SM102) expression strength level (white adipocyte): C (C: ≥0.1 and <1)

CCCCC/C=C\C/C=C\CCCCCCCCOP(=O)(NCCN(CCN(CCN(C)C)CC(O)CCCCCCCCCC)CC(O)CCCCCCCCCC)OCCCCCCCC/C=C\C/C=C\CCCCC (stereo not drawn) [PL20]
Summary of the strongest expressions [1]: B (B: ≥1 and <2) | expression compared with control SM102 (adipose tissue): superior to that of the control SM102 | Intraperitoneal injection (PL/SM102) expression strength level (adipose tissue): B (B: ≥1 and <2) | White adipocyte administration (PL/SM102) expression strength level (white adipocyte): B (B: ≥1 and <2) | expression compared with control SM102 (white adipocyte): superior to that of the control SM102

CCCCC/C=C\C/C=C\CCCCCCCCOP(=O)(NCCCN(CCCCCCCCCCCC)CCc1ccc(CCN(C)C)cc1)OCCCCCCCC/C=C\C/C=C\CCCCC [PL21]
Summary of the strongest expressions [1]: B (B: ≥1 and <2) | Intraperitoneal injection (PL/SM102) expression strength level (adipose tissue): C (C: ≥0.1 and <1) | White adipocyte administration (PL/SM102) expression strength level (white adipocyte): B (B: ≥1 and <2) | expression compared with control SM102 (white adipocyte): superior to that of the control SM102

CCCCC/C=C\C/C=C\CCCCCCCCOP(=O)(NCCN1CCN(CCOC(=O)CCN(CCCCCCCCCCCC)CCCCCCCCCCCC)CC1)OCCCCCCCC/C=C\C/C=C\CCCCC [PL26]
Summary of the strongest expressions [1]: A (A: ≥2) | expression in vivo compared with control MC3 [2]: better than that of control MC3 | Intramuscular injection (PL/MC3) expression strength level [2]: A (A: ≥2) | in vivo transfection (expression, FIG. 5) [2]: expressed | White adipocyte administration (PL/SM102) expression strength level (white adipocyte): C (C: ≥0.1 and <1)

CCCCC/C=C\C/C=C\CCCCCCCCOP(=O)(NCCCN1CCN(CCCN(CCCCCCC(=O)OC(CCCCCCCC)CCCCCCCC)CCCCCCC(=O)OC(CCCCCCCC)CCCCCCCC)CC1)OCCCCCCCC/C=C\C/C=C\CCCCC [PL28]
Summary of the strongest expressions [1]: A (A: ≥2) | Intramuscular injection (PL/MC3) expression strength level [2]: A (A: ≥2) | in vivo transfection (expression, FIG. 5) [2]: expressed | White adipocyte administration (PL/SM102) expression strength level (white adipocyte): C (C: ≥0.1 and <1)

CCCCC/C=C\C/C=C\CCCCCCCCOP(=O)(NCCCN1CCN(CCCN(CCCCCCC(=O)OC(CC)CCCCCCCC)CCCCCCC(=O)OC(CC)CCCCCCCC)CC1)OCCCCCCCC/C=C\C/C=C\CCCCC (stereo not drawn) [PL29]
Summary of the strongest expressions [1]: A (A: ≥2) | expression in vivo compared with control MC3 [2]: better than that of control MC3 | Intramuscular injection (PL/MC3) expression strength level [2]: A (A: ≥2) | in vivo transfection (expression, FIG. 5) [2]: expressed | White adipocyte administration (PL/SM102) expression strength level (white adipocyte): B (B: ≥1 and <2) | expression compared with control SM102 (white adipocyte): superior to that of the control SM102

CCCCC/C=C\C/C=C\CCCCCCCCOP(=O)(NCCCN1CCN(CCCN(CCCCCCCCCCCC)CCCCCCCCCCCC)CC1)OCCCCCCCC(=O)OC(CCCCCCCC)CCCCCCCC (stereo not drawn) [PL30]
Summary of the strongest expressions [1]: A (A: ≥2) | expression in vivo compared with control MC3 [2]: better than that of control MC3 | Intramuscular injection (PL/MC3) expression strength level [2]: A (A: ≥2) | in vivo transfection (expression, FIG. 5) [2]: expressed | White adipocyte administration (PL/SM102) expression strength level (white adipocyte): D (D: <0.1)

CCCCCCCCCCCCN(CCCCCCCCCCCC)CCCN1CCN(CCCNP(=O)(OCCCCCCCC(=O)OC(CCCCCCCC)CCCCCCCC)OCCCCCCCC(=O)OC(CCCCCCCC)CCCCCCCC)CC1 [PL31]
Summary of the strongest expressions [1]: A (A: ≥2) | expression in vivo compared with control MC3 [2]: better than that of control MC3 | Intramuscular injection (PL/MC3) expression strength level [2]: A (A: ≥2) | in vivo transfection (expression, FIG. 5) [2]: expressed | White adipocyte administration (PL/SM102) expression strength level (white adipocyte): D (D: <0.1)

CCCCCCCCCCCCN(CCCCCCCCCCCC)CCCN1CCN(CCCNP(=O)(OCCCCCCCC(=O)OC(CC)CCCCCCCC)OCCCCCCCC(=O)OC(CC)CCCCCCCC)CC1 (stereo not drawn) [PL32]
Summary of the strongest expressions [1]: A (A: ≥2) | Intramuscular injection (PL/MC3) expression strength level [2]: A (A: ≥2) | in vivo transfection (expression, FIG. 5) [2]: expressed

CCCCCCCCCCCCN(CCCCCCCCCCCC)CCCN1CCN(CCCNP(=O)(OCC(CCCCCC)CCCCCCCC)OCC(CCCCCC)CCCCCCCC)CC1 (stereo not drawn) [PL33]
Summary of the strongest expressions [1]: A (A: ≥2) | Intramuscular injection (PL/MC3) expression strength level [2]: A (A: ≥2) | in vivo transfection (expression, FIG. 5) [2]: expressed

CCCCCCCCCCC(CCCCCCCCCC)CN(CCCN1CCN(CCCNP(=O)(OCCCCCCCC(=O)OC(CCCCCCCC)CCCCCCCC)OCCCCCCCC(=O)OC(CCCCCCCC)CCCCCCCC)CC1)CC(CCCCCCCCCC)CCCCCCCCCC [PL36]
Summary of the strongest expressions [1]: C (C: ≥0.1 and <1) | White adipocyte administration (PL/SM102) expression strength level (white adipocyte): C (C: ≥0.1 and <1)

CCCCCCCCCCC(CCCCCCCCCC)CNCCCN1CCN(CCCNP(=O)(OCCCCCCCC(=O)OC(CCCCCCCC)CCCCCCCC)OCCCCCCCC(=O)OC(CCCCCCCC)CCCCCCCC)CC1 [PL41]
Summary of the strongest expressions [1]: A (A: ≥2) | Intramuscular injection (PL/MC3) expression strength level [2]: A (A: ≥2) | in vivo transfection (expression, FIG. 5) [2]: expressed | White adipocyte administration (PL/SM102) expression strength level (white adipocyte): C (C: ≥0.1 and <1)

CCCCC/C=C\C/C=C\CCCCCCCCOP(=O)(NCCCN1CCN(CCCNCC(CCCCCC)CCCCCCCC)CC1)OCCCCCCCC/C=C\C/C=C\CCCCC (stereo not drawn) [PL44]
Summary of the strongest expressions [1]: C (C: ≥0.1 and <1) | Intramuscular injection (PL/MC3) expression strength level [2]: C (C: ≥0.1 and <1) | White adipocyte administration (PL/SM102) expression strength level (white adipocyte): C (C: ≥0.1 and <1)

CCCCCCCCC(CCCCCC)CNCCCN1CCN(CCCNP(=O)(OCC(CCCCCC)CCCCCCCC)OCC(CCCCCC)CCCCCCCC)CC1 (stereo not drawn) [PL45]
Summary of the strongest expressions [1]: C (C: ≥0.1 and <1) | Intramuscular injection (PL/MC3) expression strength level [2]: C (C: ≥0.1 and <1) | White adipocyte administration (PL/SM102) expression strength level (white adipocyte): C (C: ≥0.1 and <1)

CCCCC/C=C\C/C=C\C/C=C\CCCCC(=O)OCCOP(=O)(NCCCN1CCN(CCCN(CCCCCCCCCCCC)CCCCCCCCCCCC)CC1)OCCOC(=O)CCCC/C=C\C/C=C\C/C=C\CCCCC [PL93]
Summary of the strongest expressions [1]: A (A: ≥2) | expression compared with control SM102 (adipose tissue): superior to that of the control SM102 | Intraperitoneal injection (PL/SM102) expression strength level (adipose tissue): A (A: ≥2)

CCCCC/C=C\C/C=C\C/C=C\CCCCCOP(=O)(NCCCN1CCN(CCCN(CCCCCCCCCCCC)CCCCCCCCCCCC)CC1)OCCCCC/C=C\C/C=C\C/C=C\CCCCC [PL94]
Summary of the strongest expressions [1]: A (A: ≥2) | expression compared with control SM102 (adipose tissue): superior to that of the control SM102 | Intraperitoneal injection (PL/SM102) expression strength level (adipose tissue): A (A: ≥2)

CCCCCCCCCCCCN(CCCCCCCCCCCC)CCCN1CCN(CCCNP(=O)(OCCC(C)CCCC(C)CCCC(C)CCCC(C)C)OCCC(C)CCCC(C)CCCC(C)CCCC(C)C)CC1 (stereo not drawn) [PL95]
Summary of the strongest expressions [1]: A (A: ≥2) | expression compared with control SM102 (adipose tissue): superior to that of the control SM102 | Intraperitoneal injection (PL/SM102) expression strength level (adipose tissue): A (A: ≥2)

CCCCCCCCCCCCN(CCCCCCCCCCCC)CCCN1CCN(CCCNP(=O)(OCCOC(=O)CC(C)CCCC(C)CCCC(C)CCCC(C)C)OCCOC(=O)CC(C)CCCC(C)CCCC(C)CCCC(C)C)CC1 (stereo not drawn) [PL96]
Summary of the strongest expressions [1]: C (C: ≥0.1 and <1) | Intraperitoneal injection (PL/SM102) expression strength level (adipose tissue): C (C: ≥0.1 and <1)

CCCCCCCCCCCCN(CCCCCCCCCCCC)CCCN1CCN(CCCNP(=O)(OCCCCCCCC(=O)OC(C)CC(=O)OCC)OCCCCCCCC(=O)OC(C)CC(=O)OCC)CC1 (stereo not drawn) [PL97]
Summary of the strongest expressions [1]: C (C: ≥0.1 and <1) | Intraperitoneal injection (PL/SM102) expression strength level (adipose tissue): C (C: ≥0.1 and <1)

CCCCC/C=C\C/C=C\CCCCCCCCOP(=O)(NCCCN1CCN(CCCN(CCCCCCCCCCCC)CCCCCCCCCCCC)CC1)OCCCCCCCC(=O)OC(CC)CCCCCCCC (stereo not drawn) [PL103]
Summary of the strongest expressions [1]: A (A: ≥2) | Intramuscular injection (PL/MC3) expression strength level [2]: A (A: ≥2) | in vivo transfection (expression, FIG. 5) [2]: expressed

Reference: patent publication US20260085081A1, “PHOSPHATIDYLAMINE COMPOUNDS INCLUDING A PLURALITY OF TERTIARY AMINO GROUP STRUCTURES AND COMPOSITIONS THEREOF” (PEKING UNIVERSITY, priority 2022, published 2026)
